{"source": "ChEMBL document CHEMBL1201862", "about": "“PubChem BioAssay data set” (2004)", "key": {"[1]": {"target": "T1, Rac GTPase-activating protein 1 (Homo sapiens, UniProt Q9H0H5)", "T1 sequence (Q9H0H5 whole entry)": "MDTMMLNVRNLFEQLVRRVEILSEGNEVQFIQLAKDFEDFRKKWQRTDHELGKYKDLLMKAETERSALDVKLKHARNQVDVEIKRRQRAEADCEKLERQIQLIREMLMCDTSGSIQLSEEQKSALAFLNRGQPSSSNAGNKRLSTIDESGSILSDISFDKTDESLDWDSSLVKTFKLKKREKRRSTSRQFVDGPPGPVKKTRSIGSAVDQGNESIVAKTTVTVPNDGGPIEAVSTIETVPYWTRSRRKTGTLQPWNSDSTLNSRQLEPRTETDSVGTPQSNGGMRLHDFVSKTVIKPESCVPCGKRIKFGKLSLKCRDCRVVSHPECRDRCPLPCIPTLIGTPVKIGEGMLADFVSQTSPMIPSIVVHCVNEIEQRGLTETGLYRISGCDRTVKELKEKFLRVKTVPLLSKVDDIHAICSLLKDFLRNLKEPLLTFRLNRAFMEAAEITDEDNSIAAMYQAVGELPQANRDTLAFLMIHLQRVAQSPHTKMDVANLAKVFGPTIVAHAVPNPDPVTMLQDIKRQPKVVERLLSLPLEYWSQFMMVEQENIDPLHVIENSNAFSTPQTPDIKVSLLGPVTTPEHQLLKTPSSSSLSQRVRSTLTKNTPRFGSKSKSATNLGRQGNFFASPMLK", "assay": "MgcRacGAP GTPase-activating activity inhibitors, confirmation, biochemical, ADP Hunter fluorescence, primary and confirmatory (AID 624330)", "format": "functional"}, "[2]": {"target": "ATP-dependent translocase ABCB1 (Homo sapiens, UniProt P08183)", "sequence (P08183 whole entry)": "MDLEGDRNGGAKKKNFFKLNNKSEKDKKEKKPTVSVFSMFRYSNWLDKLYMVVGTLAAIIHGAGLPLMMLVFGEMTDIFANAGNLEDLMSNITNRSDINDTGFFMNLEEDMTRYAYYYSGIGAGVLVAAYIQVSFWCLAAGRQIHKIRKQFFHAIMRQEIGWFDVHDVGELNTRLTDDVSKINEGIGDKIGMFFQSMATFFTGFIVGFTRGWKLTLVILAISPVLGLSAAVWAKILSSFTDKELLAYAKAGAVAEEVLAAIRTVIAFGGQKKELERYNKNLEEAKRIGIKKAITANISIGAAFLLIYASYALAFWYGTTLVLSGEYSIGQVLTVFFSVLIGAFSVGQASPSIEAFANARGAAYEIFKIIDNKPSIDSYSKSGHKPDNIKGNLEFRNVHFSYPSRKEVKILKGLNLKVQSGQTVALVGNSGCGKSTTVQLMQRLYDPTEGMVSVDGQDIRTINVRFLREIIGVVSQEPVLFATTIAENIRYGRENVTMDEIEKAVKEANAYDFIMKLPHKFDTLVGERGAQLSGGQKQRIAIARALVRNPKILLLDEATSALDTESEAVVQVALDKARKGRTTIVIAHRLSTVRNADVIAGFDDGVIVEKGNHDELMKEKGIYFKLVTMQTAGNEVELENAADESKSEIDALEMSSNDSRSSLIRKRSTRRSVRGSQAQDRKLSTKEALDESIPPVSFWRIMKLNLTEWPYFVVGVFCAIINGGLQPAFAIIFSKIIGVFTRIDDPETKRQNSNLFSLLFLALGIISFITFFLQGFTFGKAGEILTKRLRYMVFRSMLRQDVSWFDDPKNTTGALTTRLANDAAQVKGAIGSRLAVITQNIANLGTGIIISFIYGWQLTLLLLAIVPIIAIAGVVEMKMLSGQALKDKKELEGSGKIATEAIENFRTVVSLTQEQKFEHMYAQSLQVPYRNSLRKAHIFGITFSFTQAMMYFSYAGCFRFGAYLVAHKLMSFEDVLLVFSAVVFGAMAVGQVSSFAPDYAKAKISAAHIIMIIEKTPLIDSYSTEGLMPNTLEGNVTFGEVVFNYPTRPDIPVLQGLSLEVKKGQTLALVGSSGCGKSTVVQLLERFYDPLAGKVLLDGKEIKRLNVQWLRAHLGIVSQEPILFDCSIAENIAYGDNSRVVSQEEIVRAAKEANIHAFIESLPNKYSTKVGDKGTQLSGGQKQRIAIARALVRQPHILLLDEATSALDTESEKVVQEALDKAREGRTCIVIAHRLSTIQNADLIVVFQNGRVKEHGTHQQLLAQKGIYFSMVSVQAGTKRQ", "assay": "ABCB1 efflux pump inhibitor potency, dose response, Jurkat-DNR cells, JC-1, flow cytometry (AID 1689)", "format": "functional"}, "[3]": {"target": "Broad substrate specificity ATP-binding cassette transporter ABCG2 (Homo sapiens, UniProt Q9UNQ0)", "sequence (Q9UNQ0 whole entry)": "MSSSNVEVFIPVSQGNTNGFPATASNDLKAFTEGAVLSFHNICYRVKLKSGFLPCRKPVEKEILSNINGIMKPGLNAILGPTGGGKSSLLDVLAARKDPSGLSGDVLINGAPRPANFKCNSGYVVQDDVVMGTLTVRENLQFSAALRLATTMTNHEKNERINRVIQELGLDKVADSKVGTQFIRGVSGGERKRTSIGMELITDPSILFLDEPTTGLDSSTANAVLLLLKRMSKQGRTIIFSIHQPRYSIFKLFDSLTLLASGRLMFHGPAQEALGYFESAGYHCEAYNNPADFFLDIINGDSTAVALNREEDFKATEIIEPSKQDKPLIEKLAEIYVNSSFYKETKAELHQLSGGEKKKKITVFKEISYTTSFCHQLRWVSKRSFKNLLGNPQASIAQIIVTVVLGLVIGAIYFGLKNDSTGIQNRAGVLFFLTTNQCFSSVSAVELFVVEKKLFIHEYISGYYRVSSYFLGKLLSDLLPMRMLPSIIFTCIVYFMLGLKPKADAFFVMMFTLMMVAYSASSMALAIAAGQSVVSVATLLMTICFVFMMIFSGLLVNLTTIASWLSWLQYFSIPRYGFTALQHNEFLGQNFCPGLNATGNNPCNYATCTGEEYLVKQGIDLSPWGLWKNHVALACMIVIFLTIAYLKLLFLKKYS", "assay": "ABCG2 efflux pump inhibitors, dose response, Ig-MXP3 cells, flow cytometry (AID 1690)", "format": "functional"}, "[4]": {"target": "Arf-GAP with SH3 domain, ANK repeat and PH domain-containing protein 1 (Homo sapiens, UniProt Q9ULH1)", "sequence (Q9ULH1 whole entry, the tested form may be a part)": "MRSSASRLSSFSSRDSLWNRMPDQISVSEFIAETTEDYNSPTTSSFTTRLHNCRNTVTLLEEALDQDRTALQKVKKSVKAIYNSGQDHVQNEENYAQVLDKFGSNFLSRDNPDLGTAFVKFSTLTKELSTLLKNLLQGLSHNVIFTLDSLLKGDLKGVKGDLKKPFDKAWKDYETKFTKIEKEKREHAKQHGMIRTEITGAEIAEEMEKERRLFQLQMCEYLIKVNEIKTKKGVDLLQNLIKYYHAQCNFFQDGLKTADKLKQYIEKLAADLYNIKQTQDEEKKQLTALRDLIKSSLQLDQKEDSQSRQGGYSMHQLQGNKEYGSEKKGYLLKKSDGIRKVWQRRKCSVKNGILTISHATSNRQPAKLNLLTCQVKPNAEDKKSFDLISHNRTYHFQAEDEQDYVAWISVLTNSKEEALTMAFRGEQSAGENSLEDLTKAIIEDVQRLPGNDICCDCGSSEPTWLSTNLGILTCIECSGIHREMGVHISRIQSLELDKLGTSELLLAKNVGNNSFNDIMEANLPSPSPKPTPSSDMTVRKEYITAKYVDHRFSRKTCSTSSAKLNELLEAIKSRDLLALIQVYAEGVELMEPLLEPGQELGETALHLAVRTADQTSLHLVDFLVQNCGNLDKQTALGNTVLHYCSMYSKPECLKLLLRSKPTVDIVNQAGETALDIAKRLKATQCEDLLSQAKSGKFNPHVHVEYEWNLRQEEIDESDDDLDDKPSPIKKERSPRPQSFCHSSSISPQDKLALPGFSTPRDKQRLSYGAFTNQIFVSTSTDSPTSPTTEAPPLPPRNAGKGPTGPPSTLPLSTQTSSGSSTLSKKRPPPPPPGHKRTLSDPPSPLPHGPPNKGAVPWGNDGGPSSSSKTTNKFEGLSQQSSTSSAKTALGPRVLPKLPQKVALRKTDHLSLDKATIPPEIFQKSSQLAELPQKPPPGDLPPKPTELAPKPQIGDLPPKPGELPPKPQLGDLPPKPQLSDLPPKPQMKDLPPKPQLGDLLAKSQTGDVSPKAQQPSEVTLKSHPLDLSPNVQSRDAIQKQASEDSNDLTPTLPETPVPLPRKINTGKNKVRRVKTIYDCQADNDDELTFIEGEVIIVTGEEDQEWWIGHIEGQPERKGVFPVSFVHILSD", "format": "functional"}, "[5]": {"target": "T2, Sentrin-specific protease 8 (Homo sapiens, UniProt Q96LD8)", "T2 sequence (Q96LD8 whole entry)": "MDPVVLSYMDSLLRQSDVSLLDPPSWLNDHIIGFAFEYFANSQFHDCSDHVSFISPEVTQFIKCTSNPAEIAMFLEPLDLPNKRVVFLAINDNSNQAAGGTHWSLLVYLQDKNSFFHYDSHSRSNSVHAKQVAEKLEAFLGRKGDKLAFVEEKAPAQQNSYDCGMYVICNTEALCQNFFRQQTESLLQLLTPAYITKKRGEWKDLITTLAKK", "format": "functional"}, "[6]": {"target": "T2, Sentrin-specific protease 8", "format": "functional", "remark": "listed apart in the source"}, "HEK293 [7]": {"system": "HEK293", "assay": "cells", "conditions": "Homo sapiens"}, "X-box-binding protein 1": {"target": "X-box-binding protein 1 (Homo sapiens, UniProt P17861)", "sequence (P17861 whole entry)": "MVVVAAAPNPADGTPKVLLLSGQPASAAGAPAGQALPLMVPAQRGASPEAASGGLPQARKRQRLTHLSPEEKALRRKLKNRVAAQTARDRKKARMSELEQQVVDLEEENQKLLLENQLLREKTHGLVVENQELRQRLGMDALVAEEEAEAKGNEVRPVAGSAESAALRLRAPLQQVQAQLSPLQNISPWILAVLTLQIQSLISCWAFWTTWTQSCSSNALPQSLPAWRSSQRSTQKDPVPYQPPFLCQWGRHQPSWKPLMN", "format": "functional, Cricetulus griseus"}, "BJ [8]": {"system": "BJ", "assay": "cytotoxicity toward Ras-transformed BJeLR fibroblasts, dose response, cell-based, alamar blue fluorescence, cherrypicked samples (AID 2631)", "format": "functional", "conditions": "Homo sapiens"}, "[9]": {"assay": "HepG2 cell cytotoxicity, dose response, cytotoxicity control for Shn3 inhibitor project, CellTiter-Glo, cherry-picked (AID 624134)", "format": "functional, cell-based"}, "[10]": {"assay": "Shn3 3'UTR reporter inhibitors, dose response, cell-based, Clone20 osteoblasts, firefly luciferase, cherry-picked (AID 624132)", "format": "functional"}, "[11]": {"assay": "control 3'UTR Renilla luciferase suppression, dose response, counter-screen for Shn3 inhibitor project, cell-based, Clone20-Shn3RL, cherry-picked (AID 624133)", "format": "functional"}, "[12]": {"target": "T3, Heat shock factor protein 1 (Mus musculus, UniProt P38532)", "T3 sequence (P38532 whole entry)": "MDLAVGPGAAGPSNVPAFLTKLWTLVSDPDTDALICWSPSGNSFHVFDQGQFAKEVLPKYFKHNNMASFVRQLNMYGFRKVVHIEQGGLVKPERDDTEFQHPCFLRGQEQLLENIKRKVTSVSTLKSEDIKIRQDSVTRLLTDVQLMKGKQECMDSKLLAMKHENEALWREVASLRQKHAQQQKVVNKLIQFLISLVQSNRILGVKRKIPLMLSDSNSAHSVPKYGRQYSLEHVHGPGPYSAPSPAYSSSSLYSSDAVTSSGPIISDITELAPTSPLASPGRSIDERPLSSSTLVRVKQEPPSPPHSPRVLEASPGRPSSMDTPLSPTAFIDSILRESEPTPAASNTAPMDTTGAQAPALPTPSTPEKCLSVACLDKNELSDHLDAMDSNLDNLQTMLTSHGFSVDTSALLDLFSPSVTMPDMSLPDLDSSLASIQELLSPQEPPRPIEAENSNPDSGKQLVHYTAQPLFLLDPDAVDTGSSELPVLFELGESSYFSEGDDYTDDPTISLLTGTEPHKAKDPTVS", "assay": "HSF1 potentiators in luciferase reporter cells, confirmation, cell-based, NIH3T3, luminescence, dose retest (AID 435004);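 note: stress induced by proteasome inhibitor MG132 added 30 min after compound; actives raise luminescence as potentiators of the MG132 stress response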", "format": "functional"}, "cells [13]": {"assay": "cells", "format": "functional, cell-based"}, "[14]": {"assay": "HEK293T cell cytotoxicity, dose response, cytotoxicity control for HIV Vif inhibitor project, cherry-picks (AID 652208)", "format": "functional, cell-based"}, "cells [15]": {"assay": "cells", "format": "functional, cell-based", "remark": "listed apart in the source"}, "HEK293 [16]": {"system": "HEK293", "assay": "cells", "conditions": "Homo sapiens", "remark": "listed apart in the source"}, "Paired box protein Pax-8": {"target": "Paired box protein Pax-8 (Homo sapiens, UniProt Q06710)", "sequence (Q06710 whole entry)": "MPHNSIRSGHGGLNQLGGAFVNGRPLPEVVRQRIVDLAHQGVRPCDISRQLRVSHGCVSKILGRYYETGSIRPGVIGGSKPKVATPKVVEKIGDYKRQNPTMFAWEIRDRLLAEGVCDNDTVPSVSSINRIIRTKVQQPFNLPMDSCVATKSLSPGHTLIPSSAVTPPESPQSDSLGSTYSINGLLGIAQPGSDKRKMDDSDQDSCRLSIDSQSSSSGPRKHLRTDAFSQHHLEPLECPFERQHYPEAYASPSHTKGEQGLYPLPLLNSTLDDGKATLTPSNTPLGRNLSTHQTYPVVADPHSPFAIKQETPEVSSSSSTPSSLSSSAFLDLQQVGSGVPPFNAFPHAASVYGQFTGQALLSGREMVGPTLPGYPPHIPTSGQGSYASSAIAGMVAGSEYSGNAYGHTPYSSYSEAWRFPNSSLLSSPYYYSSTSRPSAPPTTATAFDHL", "assay": "inhibitors of PAX8-driven TPO luciferase reporter, dose response, RMG-I cells, cherry-pick (AID 687027);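 note: luciferase reporter driven by Pax8 target thyroperoxidase promoter measured by SteadyGlo luminescence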", "format": "functional, cell-based"}, "[17]": {"target": "Nuclear receptor subfamily 0 group B member 1 (Homo sapiens, UniProt P51843)", "sequence (P51843 whole entry)": "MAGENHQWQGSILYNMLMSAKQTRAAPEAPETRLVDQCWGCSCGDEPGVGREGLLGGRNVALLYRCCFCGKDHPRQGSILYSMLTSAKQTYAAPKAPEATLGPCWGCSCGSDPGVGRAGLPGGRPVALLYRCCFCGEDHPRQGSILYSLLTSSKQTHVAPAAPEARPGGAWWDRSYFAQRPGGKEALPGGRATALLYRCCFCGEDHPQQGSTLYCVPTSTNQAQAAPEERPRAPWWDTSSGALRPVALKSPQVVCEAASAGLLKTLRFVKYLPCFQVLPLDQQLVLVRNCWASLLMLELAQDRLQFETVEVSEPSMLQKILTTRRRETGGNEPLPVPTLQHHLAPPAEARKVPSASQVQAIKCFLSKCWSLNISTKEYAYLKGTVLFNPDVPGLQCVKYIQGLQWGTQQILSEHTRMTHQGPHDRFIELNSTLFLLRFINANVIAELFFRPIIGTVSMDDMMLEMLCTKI", "format": "functional, cell-based"}, "BJ [18]": {"system": "BJ", "assay": "cytotoxicity toward BJ-TERT-LT-ST fibroblasts, dose response, cell-based, RAS-independent, luminescence (AID 1935);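 note: BJ fibroblasts immortalized with TERT plus LT and ST oncogenes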", "format": "functional", "conditions": "Homo sapiens"}, "BJ [19]": {"system": "BJ", "assay": "cytotoxicity toward BJ-TERT fibroblasts, dose response, cell-based, RAS-independent, luminescence (AID 1933)", "format": "functional", "conditions": "Homo sapiens"}, "[20]": {"assay": "cytotoxicity toward DRD oncogenic fibroblasts, dose response, cell-based, non-viral oncogenic, luminescence (AID 1934)", "format": "functional", "conditions": "Homo sapiens"}, "BJ [21]": {"system": "BJ", "assay": "cells", "format": "functional, cell-based", "conditions": "Homo sapiens"}, "cells [22]": {"assay": "cells", "format": "functional, cell-based", "remark": "listed apart in the source"}, "[23]": {"target": "T4, Scavenger receptor class B member 1 (Mus musculus, UniProt Q61009)", "T4 sequence (Q61009 whole entry)": "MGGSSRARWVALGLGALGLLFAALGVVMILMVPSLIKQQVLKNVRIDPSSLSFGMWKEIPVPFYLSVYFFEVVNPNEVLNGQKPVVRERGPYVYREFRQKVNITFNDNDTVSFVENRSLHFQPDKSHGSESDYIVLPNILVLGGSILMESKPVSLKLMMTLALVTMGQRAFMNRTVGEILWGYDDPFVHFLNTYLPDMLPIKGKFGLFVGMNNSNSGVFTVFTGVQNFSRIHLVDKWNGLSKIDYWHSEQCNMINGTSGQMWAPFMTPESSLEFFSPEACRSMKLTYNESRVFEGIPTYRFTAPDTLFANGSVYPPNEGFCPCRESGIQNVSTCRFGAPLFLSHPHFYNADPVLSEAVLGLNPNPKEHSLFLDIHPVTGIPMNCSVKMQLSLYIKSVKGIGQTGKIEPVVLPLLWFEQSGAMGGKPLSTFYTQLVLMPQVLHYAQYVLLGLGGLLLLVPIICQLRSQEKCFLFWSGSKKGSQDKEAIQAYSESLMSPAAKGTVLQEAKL", "assay": "inhibitors of SR-BI-mediated HDL uptake, dose response, cell-based, ldlA[mSR-BI] CHO, DiI fluorescence, dry powder, set 10 (AID 624029)", "format": "functional"}, "[24]": {"target": "T4, Scavenger receptor class B member 1", "assay": "inhibitors of SR-BI dependent HDL uptake, dose response, ldlA[mSR-BI] CHO cells, fluorescence plate reader, dry powder, set 9 (AID 623880)", "format": "functional, cell-based"}}, "note": "Calls of active or inactive are those of the source.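 Throughout, for Absolute IC50 (XBP1): confirmatory dose-response counter-screen serving a CHOP assay.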", "data": [{"smiles": "COc1cc(C(=O)N/N=C/c2ccc(OC)c(CN3CCN(c4ccc(F)cc4)CC3)c2)ccc1O", "values": [{"measurement": "IC50", "setting": "[1]", "result": "83.3 µM (active)"}, {"measurement": "EC50", "setting": "[2]", "result": "0.165 µM (active)"}, {"measurement": "EC50", "setting": "[3]", "result": "0.76 µM (inactive)"}]}, {"smiles": "COc1ccc(-n2nnc3c(=O)n(CC(=O)Nc4ccc5c(c4)OCCO5)cnc32)cc1OC", "values": [{"measurement": "IC50", "setting": "[4]", "result": "11.8 µM (inactive)"}]}, {"smiles": "COc1ccc(S(=O)(=O)Oc2ccc3cccc(N)c3c2)cc1", "values": [{"measurement": "IC50", "setting": "[5]", "result": "9.11 µM (active)"}, {"measurement": "IC50", "setting": "[6]", "result": "19.6 µM (active)"}]}, {"smiles": "Cc1cc(Cl)n2c(nc3cc(F)c(F)cc32)c1C#N", "values": [{"measurement": "EC50", "setting": "HEK293 [7]", "result": "> 59.6 µM (inactive)"}, {"measurement": "Absolute IC50 (XBP1)", "setting": "X-box-binding protein 1", "result": 10, "unit": "µM"}, {"measurement": "EC50", "setting": "BJ [8]", "result": "0.139 µM (inconclusive)"}, {"measurement": "AC50", "setting": "[9]", "result": "14.8 µM (active)"}, {"measurement": "AC50", "setting": "[10]", "result": "3.56 µM (active)"}, {"measurement": "AC50", "setting": "[11]", "result": "6.62 µM (active)"}, {"measurement": "EC50", "setting": "[12]", "result": "3.35 µM (active)"}, {"measurement": "EC50", "setting": "cells [13]", "result": "> 350 µM (not active)"}, {"measurement": "AC50", "setting": "[14]", "result": "4.49 µM (active)"}, {"measurement": "EC50", "setting": "cells [15]", "result": "54.5 µM (active)"}, {"measurement": "EC50", "setting": "HEK293 [16]", "result": "> 59.6 µM (inactive)"}]}, {"smiles": "CCOC(=O)N1CCC(NC(=O)c2ccc3c(c2)N=C(C)c2c(C)ccc(C)c2S3)CC1", "values": [{"measurement": "AC50", "setting": "Paired box protein Pax-8", "result": "3.05 µM (active)"}, {"measurement": "IC50", "setting": "[17]", "result": "> 67.5 µM (inactive)"}, {"measurement": "EC50", "setting": "BJ [18]", "result": "1.43 µM (active)"}, {"measurement": "EC50", "setting": "BJ [19]", "result": "1.52 µM (active)"}, {"measurement": "EC50", "setting": "[20]", "result": "1.12 µM (active)"}, {"measurement": "EC50", "setting": "BJ [21]", "result": "29.3 µM (active)"}, {"measurement": "IC50", "setting": "cells [22]", "result": "> 67.5 µM (inactive)"}]}, {"smiles": "C[C@@H]1CN([C@H](C)CO)C(=O)c2cc(NC(=O)C3CCCCC3)ccc2O[C@H]1CN(C)S(=O)(=O)c1ccccc1Cl", "values": [{"measurement": "AC50", "setting": "[23]", "result": "0.202 µM (active)"}, {"measurement": "AC50", "setting": "[24]", "result": "0.176 µM (active)"}]}]}
